Assay results from ChEMBL document CHEMBL1134001, “Novel inhibitors of the enzyme estrone sulfatase (ES)” (Bioorg Med Chem Lett, 2001).

What was measured:
[1] = molecular target: T1, Steryl-sulfatase (Homo sapiens) (UniProt P08842); assay: Relative potency compared to EMATE against Estrone sulfatase
T1 sequence (whole entry): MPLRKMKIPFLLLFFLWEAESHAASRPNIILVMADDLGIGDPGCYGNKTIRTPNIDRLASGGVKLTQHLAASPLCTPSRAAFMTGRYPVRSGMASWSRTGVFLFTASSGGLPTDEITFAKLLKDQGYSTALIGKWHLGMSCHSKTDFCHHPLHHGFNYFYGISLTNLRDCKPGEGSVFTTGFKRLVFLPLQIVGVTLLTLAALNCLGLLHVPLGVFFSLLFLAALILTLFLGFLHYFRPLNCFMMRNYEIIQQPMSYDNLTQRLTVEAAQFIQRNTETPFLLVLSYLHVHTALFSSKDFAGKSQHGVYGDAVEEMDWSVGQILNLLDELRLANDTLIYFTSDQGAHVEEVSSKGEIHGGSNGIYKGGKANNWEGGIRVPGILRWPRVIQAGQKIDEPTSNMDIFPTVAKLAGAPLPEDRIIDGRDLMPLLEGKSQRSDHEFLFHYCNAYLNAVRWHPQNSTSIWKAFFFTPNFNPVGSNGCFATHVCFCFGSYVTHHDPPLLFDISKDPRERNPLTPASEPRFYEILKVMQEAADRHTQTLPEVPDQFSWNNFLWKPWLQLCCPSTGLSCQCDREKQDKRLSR

Steryl-sulfatase = molecular target: T2, Steryl-sulfatase (Homo sapiens, UniProt P08842); assay: Inhibition of Estrone sulfatase
T2 sequence (P08842 whole entry): T1 sequence (whole entry)

[2] = molecular target: T1, Steryl-sulfatase (Homo sapiens); assay: Relative potency compared to COUMATE against Estrone sulfatase
[3] = molecular target: T1, Steryl-sulfatase (Homo sapiens)
Description: (§1) Relative potency against Estrone sulfatase

[4] = molecular target: T1, Steryl-sulfatase (Homo sapiens); remark: listed apart in the source
[5] = molecular target: T1, Steryl-sulfatase (Homo sapiens); remark: listed apart in the source
Description: as §1

Row | SMILES | Potency [1] | IC50 (Steryl-sulfatase) | Potency [2] | Potency [3] | Potency [4] | Potency [5]
1 | NS(=O)(=O)Oc1ccc(C=O)cc1 | 0.0019 | 254 µM | 0.0472 | – | – | –
2 | CCCCC(=O)c1ccc(OS(N)(=O)=O)cc1 | 0.0239 | 20.9 µM | 0.574 | – | – | –
3 | NS(=O)(=O)Oc1ccc(C(=O)Cc2ccccc2)cc1 | 0.0152 | 33 µM | 0.364 | – | – | –
4 | CC(=O)c1ccc(OS(N)(=O)=O)cc1 | 0.0016 | 302 µM | 0.0397 | – | – | –
5 | CCCC(=O)c1ccc(OS(N)(=O)=O)cc1 | 0.0126 | 39.8 µM | 0.301 | – | – | –
6 | NS(=O)(=O)Oc1ccc(C(=O)c2ccccc2)cc1 | 0.0079 | 63 µM | 0.191 | – | – | –
7 | C[C@]12CC[C@@H]3c4ccc(OS(N)(=O)=O)cc4CCC3[C@@H]1CCC2=O (single isomer, unassigned) [EMATE] | – | 0.5 µM | 24 | – | – | 1
8 | NS(=O)(=O)Oc1ccc(C(=O)/C=C/c2ccccc2)cc1 | 0.0019 | 263 µM | 0.0456 | – | – | –

Now from value to compound, other results behind:

Row | Potency [1] | IC50 (Steryl-sulfatase) | Potency [2] | Potency [3] | Potency [4] | SMILES | Potency [5]
9 | 0.1 | 5 µM | 2.4 | – | – | CCCCCCC(=O)c1ccc(OS(N)(=O)=O)cc1 | –
10 | 0.0893 | 5.6 µM | 2.14 | – | – | CCCCCCCC(=O)c1ccc(OS(N)(=O)=O)cc1 | –
11 | – | 12 µM | – | 1 | 0.0417 | Cc1cc(=O)oc2cc(OS(N)(=O)=O)ccc12 | –
12 | 0.0385 | 13 µM | 0.923 | – | – | CCCCCCCCCC(=O)c1ccc(OS(N)(=O)=O)cc1 | –
13 | 0.147 | 3.4 µM | 3.53 | – | – | CCCCCCCCC(=O)c1ccc(OS(N)(=O)=O)cc1 | –
